The text below walks through data of ChEMBL document CHEMBL1817586, “N-(1,3-Diaryl-3-oxopropyl)amides as a new template for xanthine oxidase inhibitors” (Bioorg Med Chem, 2011).

Each structure is given as a SMILES string.

Assay [1] concerns the target Xanthine dehydrogenase/oxidase (Bos taurus, UniProt P80457). The assay can be described thus: Inhibition of bovine milk xanthine oxidase assessed as decrease of uric acid formation preincubated for 5 mins by UV-visible spectrophotometric analysis.
Assay [2] has as its system Mus musculus. The assay can be described thus: Antihyperuricemic activity in Swiss mouse assessed as decrease of potassium oxonate-induced uric acid level in serum at 20 mg/kg, ip after 3 hrs by HPLC analysis (reference value: 7.80 +/- 0.34 uM). The assay is classed as functional. To be noted: route intraperitoneal.
Assay [3] concerns Mus musculus. The assay can be described thus: Antihyperuricemic activity in Swiss mouse assessed as decrease of potassium oxonate-induced uric acid level in serum at 50 mg/kg, ip after 3 hrs by HPLC analysis (reference value: 7.80 +/- 0.34 uM). The assay is classed as functional. To be noted: route intraperitoneal.
The test system of assay [4] is Mus musculus. The assay can be described thus: Antihyperuricemic activity in Swiss mouse assessed as decrease of potassium oxonate-induced uric acid level in serum at 10 mg/kg, ip after 3 hrs by HPLC analysis (reference value: 7.80 +/- 0.34 uM). The assay is classed as functional. To be noted: route intraperitoneal.

Xanthine dehydrogenase/oxidase, sequence (P80457 whole entry): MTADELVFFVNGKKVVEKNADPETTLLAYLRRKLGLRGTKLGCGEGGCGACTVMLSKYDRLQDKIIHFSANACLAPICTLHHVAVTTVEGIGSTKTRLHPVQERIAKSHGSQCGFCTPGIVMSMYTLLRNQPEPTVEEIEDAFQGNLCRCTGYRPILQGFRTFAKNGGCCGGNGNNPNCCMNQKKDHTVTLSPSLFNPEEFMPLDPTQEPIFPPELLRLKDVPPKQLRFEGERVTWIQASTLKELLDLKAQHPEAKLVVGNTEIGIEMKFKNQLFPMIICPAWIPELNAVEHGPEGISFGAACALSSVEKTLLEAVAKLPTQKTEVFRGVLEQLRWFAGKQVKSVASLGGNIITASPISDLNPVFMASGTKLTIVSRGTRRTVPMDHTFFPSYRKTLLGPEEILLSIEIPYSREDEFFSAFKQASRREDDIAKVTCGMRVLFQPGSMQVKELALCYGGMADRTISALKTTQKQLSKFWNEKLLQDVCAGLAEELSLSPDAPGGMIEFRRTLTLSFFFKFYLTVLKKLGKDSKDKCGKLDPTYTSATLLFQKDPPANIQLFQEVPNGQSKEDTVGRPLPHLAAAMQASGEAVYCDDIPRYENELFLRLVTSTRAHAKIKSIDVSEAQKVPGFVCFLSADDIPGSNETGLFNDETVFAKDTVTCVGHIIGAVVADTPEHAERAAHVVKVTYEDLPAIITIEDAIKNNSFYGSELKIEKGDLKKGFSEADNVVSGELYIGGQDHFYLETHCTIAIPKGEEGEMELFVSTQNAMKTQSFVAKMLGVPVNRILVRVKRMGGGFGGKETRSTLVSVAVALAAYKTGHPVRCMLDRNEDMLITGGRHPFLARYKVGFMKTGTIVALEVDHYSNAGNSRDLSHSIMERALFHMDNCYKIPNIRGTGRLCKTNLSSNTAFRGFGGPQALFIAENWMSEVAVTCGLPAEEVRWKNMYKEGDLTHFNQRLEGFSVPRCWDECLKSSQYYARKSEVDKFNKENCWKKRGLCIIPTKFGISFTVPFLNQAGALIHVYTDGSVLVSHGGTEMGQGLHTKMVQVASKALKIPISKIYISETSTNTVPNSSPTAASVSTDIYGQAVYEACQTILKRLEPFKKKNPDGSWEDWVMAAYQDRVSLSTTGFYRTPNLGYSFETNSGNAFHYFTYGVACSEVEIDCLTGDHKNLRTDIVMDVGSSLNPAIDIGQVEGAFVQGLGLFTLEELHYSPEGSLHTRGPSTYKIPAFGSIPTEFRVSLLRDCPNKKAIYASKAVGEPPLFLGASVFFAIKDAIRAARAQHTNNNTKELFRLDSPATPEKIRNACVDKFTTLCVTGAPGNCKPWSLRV

As usually defined, the IC50 is the concentration needed to halve the response being measured. `CC(=O)NC(CC(=O)c1ccccc1)c1cccc([N+](=O)[O-])c1` (centres undefined): in assay [1], the IC50 was 26.2 µM.
On the same count and under the same terms, the figure for `CC(=O)Nc1cccc(C(=O)CC(/C=C/c2ccccc2)NC(C)=O)c1` (centres undefined) is 69.2 µM; for `COc1cc(C(CC(=O)c2ccccc2)NC(C)=O)cc(OC)c1OC` (centres undefined) it is 48.2 µM.
As for `CC(=O)NC(CC(=O)c1ccc2ccccc2c1)c1cccc(Br)c1` (centres undefined), the Activity in assay [2] is 2.96 µM; in assay [3] it was 2.18 µM; in assay [4], 3.21 µM. Moreover, the IC50 in assay [1] is 2.45 µM.
Regarding `COc1ccc(OC)c(C(CC(=O)c2ccccc2)NC(C)=O)c1` (centres undefined), the IC50 in assay [1] turned out to be 44 µM.
On the same count and under the same terms, with `COc1ccc(OC)c(C(CC(=O)c2cccc(NC(C)=O)c2)NC(C)=O)c1` (centres undefined) the figure was 43.2 µM; with `CC(=O)NC(CC(=O)c1ccccc1)c1ccc(Cl)cc1` (centres undefined), 27.1 µM; with `CC(=O)NC(CC(=O)c1cccc2ccccc12)c1cccc([N+](=O)[O-])c1` (centres undefined), 44 µM.
Take `CC(=O)NC(CC(=O)c1ccc2ccccc2c1)c1ccccc1` (centres undefined): the Activity in assay [2] came out at 4.22 µM; in assay [3], 4.14 µM; in assay [4] it was 4.26 µM. Besides, in assay [1], the 50% inhibitory concentration (IC50) came out at 8.5 µM.
As for `CC(=O)NC(CC(=O)c1ccccc1)c1ccccc1[N+](=O)[O-]` (centres undefined), in assay [1], the IC50 was 32.3 µM.
The same measure, in the same setting: the figure for `CC(=O)NC(CC(=O)c1ccc(Cl)cc1)c1ccc(Cl)cc1` (centres undefined) is 41 µM.
On the same count and under the same terms, the figure for `CC(=O)NC(CC(=O)c1ccccc1)c1cccs1` (centres undefined) is 65 µM; for `CC(=O)NC(CC(=O)c1ccccc1)c1ccc(C#N)cc1` (centres undefined) it is 29 µM; for `CC(=O)NC(CC(=O)c1ccc(Cl)cc1)c1ccc(C)cc1` (centres undefined) it is 44.6 µM.
Still for that read-out and setting: the figure for `CC(=O)NC(CC(=O)c1cccc2ccccc12)c1ccccc1` (centres undefined) is 40 µM; for `COc1ccc(C(CC(=O)c2ccccc2)NC(C)=O)cc1OC` (centres undefined) it is 44.3 µM; for `CC(=O)NC(CC(=O)c1ccc([N+](=O)[O-])cc1)c1ccc(Cl)cc1` (centres undefined) it is 45.4 µM.
On to `CC(=O)NC(CC(=O)c1ccccc1)c1ccccc1` (centres undefined), for which the IC50 in assay [1] was found to be 38.3 µM.
Still for that read-out and setting: with `COc1ccc(C(CC(=O)c2ccc([N+](=O)[O-])cc2)NC(C)=O)cc1` (centres undefined) the figure was 52.6 µM.
Still for that read-out and setting: with `CC(=O)NC(CC(=O)c1cc(Cl)cs1)c1ccc(Cl)cc1` (centres undefined) the figure was 22 µM; with `O=C(CC(NC(=O)c1ccccc1)c1ccccc1)c1ccccc1` (centres undefined), 58.1 µM.
Still for that read-out and setting: the figure for `COc1ccc(C(CC(=O)c2ccccc2)NC(C)=O)cc1` (centres undefined) is 45 µM; for `CC(=O)NC(CC(=O)c1cc(C)sc1C)c1ccc(Cl)cc1` (centres undefined) it is 21.7 µM.
In the case of `CC(=O)Nc1cccc(C(=O)CC(NC(C)=O)c2cccc([N+](=O)[O-])c2)c1` (centres undefined), the IC50 in assay [1] was 32 µM.
For the compound `CC(=O)NC(CC(=O)c1ccco1)c1cccc([N+](=O)[O-])c1` (centres undefined), the Activity in assay [2] stood at 7.01 µM; in assay [3] it was 6.98 µM; in assay [4], 7.13 µM. Further, in assay [1], the IC50 is 15.2 µM.
Regarding `CC(=O)NC(CC(=O)c1ccccc1)c1ccc2ccccc2c1` (centres undefined), the IC50 in assay [1] was found to be 53 µM.
On the same count and under the same terms, with `CC(=O)NC(CC(=O)c1ccccc1)c1ccco1` (centres undefined) the figure was 63 µM.
Same read-out and setting: the figure for `CC(=O)NC(CC(=O)c1ccccc1)c1cccc2ccccc12` (centres undefined) is 59 µM.
On the same count and under the same terms, the figure for `CC(=O)NC(CC(=O)c1ccco1)c1ccccc1` (centres undefined) is 26 µM.
Regarding `CC(=O)Nc1cccc(C(=O)CC(NC(C)=O)c2ccc(Cl)cc2)c1` (centres undefined), the IC50 in assay [1] was 41.8 µM.
For `O=C(CC(NC(=O)c1ccccc1)c1cccc([N+](=O)[O-])c1)c1ccccc1` (centres undefined), the IC50 in assay [1] came out at 43.6 µM.
Still for that read-out and setting: with `CC(=O)NC(CC(=O)c1ccccc1)c1cccc(Br)c1` (centres undefined) the figure was 28.1 µM; with `CC(=O)NC(CC(=O)c1ccc([N+](=O)[O-])cc1)c1ccccc1` (centres undefined), 48 µM; with `C[N+](=O)C(CC(=O)c1ccccc1)c1c2ccccc2cc2ccccc12` (centres undefined), 91.6 µM.
The same measure, in the same setting: with `COc1ccc(OC)c(C(CC(=O)c2cc(Cl)cs2)NC(C)=O)c1` (centres undefined) the figure was 20 µM.
For `Oc1ncnc2[nH]ncc12` [ALLOPURINOL], the Activity was 2.93 µM in assay [2], 2.17 µM in assay [3] and 3.19 µM in assay [4].
As for `COc1ccc(C(CC(=O)c2ccccc2)NC(C)=O)c(OC)c1OC` (centres undefined), in assay [1], the IC50 is 46.1 µM.
On to `CC(=O)NC(CC(=O)c1cccc2ccccc12)c1cccc(Br)c1` (centres undefined), for which the IC50 in assay [1] stood at 42.2 µM.
For the compound `CC(=O)NC(/C=C/c1ccccc1)CC(=O)c1ccccc1` (centres undefined), the IC50 in assay [1] was found to be 78.3 µM.
On the same count and under the same terms, the figure for `CC(=O)NC(CC(=O)c1cccs1)c1ccccc1` (centres undefined) is 27 µM; for `CC(=O)NC(CC(=O)c1ccccc1)c1ccc([N+](=O)[O-])cc1` (centres undefined) it is 28.5 µM.
Still for that read-out and setting: with `CC(=O)NC(CC(=O)c1ccc(Cl)cc1)c1ccccc1` (centres undefined) the figure was 42 µM.
Same read-out and setting: with `CC(=O)NC(CC(=O)c1cc(C)sc1C)c1cccc([N+](=O)[O-])c1` (centres undefined) the figure was 19.8 µM.
